# From US10959966B2, “Compositions and methods for modulating HEXM1 expression” (CASE WESTERN RESERVE UNIVERSITY, priority 2014, dated 2021)
# What was measured:
# [1] = tested on: HEXIM1 expression in LNCaP prostate cancer cells; experiment: HEXIM1 expression by western blot in LNCaP cells treated with HMBA analogs; assay type: cell-based; conditions: LNCaP cells, 24 h, western blot normalized to β-actin; for HEXIM1 expression induction at lower concentration: analogs at 100 μM; for HEXIM1 expression compared to the vehicle treatment (cutoff 2.5 fold): analogs at 500 μM
# Experimental: (§1) FIGS. 2(A-B) illustrate Western blots and a graph showing the effect of HMBA analogs on HEXIM1 expression. LNCaP cells were treated with vehicle, HMBA (5 mM) and its analogs at 500 μM for 24 h. Level of HEXIM1 (upper panel) and β-actin (lower panel) was analyzed by Western blot of cell extracts with HEXIM1 antibody and β-actin antibody respectively. The bands of HEXIM1 were quantified using ImageJ (NIH) and normalized to β-actin. The results are the representative of three independent experiments.
# as §1, with “3(A-B)” for “2(A-B)”, “lower concentration” for “the effect”, “identified” for “its”, “100” for “500”
# FIGS. 4(A-B) illustrate Western blots and a graph showing dose-dependent study of compound 4a1 and HMBA on HEXIM1 expression. Level of HEXIM1 (upper panel) and β-actin (lower panel) was analyzed by Western blot of cell extracts with HEXIM1 antibody and β-actin antibody respectively.
# HMBA analogs described herein can be synthesized based on the HMBA scaffold and then selected for their ability to induce HEXIM1 expression in an in vitro cell assay. For example, the synthesized HMBA analogs can be administered to cells, such as LNCaP prostate cancer cells, and the level of HEXIM1 in such cells can be measured using western blot analyses. The level of HEXIM1 expression of cells that are treated with a potential HMBA analog can be compared to control cells treated without the HMBA analog or with HMBA. Control cells (untreated or treated with HMBA) can be assigned a relative HEXIM1 expression value. Induction or promotion of HEXIM1 expression is achieved when the HEXIM1 expression relative to the control is increased at least about 1%, 5%, 10%, 15%, 20%, 30%, 50%, 75%, 100%, 200%, or more.
# The synthesis of the symmetrical and unsymmetrical derivatives is described in Scheme 1 and 2, respectively. For the symmetrical analogs, moieties A and C were kept identical. Besides the acetyl group of HMBA, methanesulfonyl group, propionyl group or butyryl group were introduced. In addition, a bulky benzoyl group was introduced. The active proton in the amide moiety was replaced with methyl group to generate a series of analogs with lower solubility. For the moiety B, various linkers such as 1,3-propylene, […] 1,4-cyclohexylene, 1,4-phenylene-bis(methylene), 1,4-cyclohexylene-bis(methylene) were tested for optimization. For the unsymmetrical analogs, the A and B moieties were kept the same as HMBA while the C moiety was modified with aryl or alkyl amide. A total of 32 compounds were synthesized, and these compounds were examined for their potency to induce HEXIM1 in LNCaP prostate cancer cells. HMBA (5 mM) was used as a positive control.
# (§2) Therefore, these three compounds were screened at lower concentrations.
# [2] = tested on: LNCaP cells; experiment: Cell morphology after treatment, to exclude compounds causing cell toxicity; conditions: 500 μM
# Text: Cell morphology was examined after the treatment to exclude compounds that caused cell toxicity.
# [3] = Precipitation of compounds in cell culture; assay type: physicochemical; conditions: 500 μM
# Experimental: as §2
# Some compounds were further evaluated at a lower concentration of 100 μM (FIG. 3). […] The variation in potency could be due to the precipitation of the two compounds at 500 μM, which hampers cell penetration. […] Due to the unsymmetrical structural characteristic of 4a1, a dose-dependent study was performed and the results are presented in FIG. 4.
SMILES,HEXIM1 expression induction at lower concentration [1],Cell morphology after the treatment [2],HEXIM1 expression compared to the vehicle treatment (cutoff 2.5 fold) [1],Precipitation during the treatment [3]
CCC(=O)NCCCCCCNC(=O)CC [Compound 2a4],reduced activity,–,–,–
CCCC(=O)NCCCCCCNC(=O)CCC [Compound 2a5],reduced activity,–,–,–
CC(=O)NCC1CCC(CNC(C)=O)CC1 (stereo not shown) [Compound 2c1],–,cell morphology slightly changed,reached this cutoff,–
CC(=O)NC1CCC(NC(C)=O)CC1 (stereo not shown) [Compound 2d1],not able to induce HEXIM1 expression,–,–,–
CS(=O)(=O)NCCCNS(C)(=O)=O [Compound 2f2],not able to induce HEXIM1 expression,–,–,–
CN(CCCCCCN(C)S(C)(=O)=O)S(C)(=O)=O [Compound 3a2],significant activity,–,did not reach the cutoff,precipitation
CC(=O)N(C)Cc1ccc(CN(C)C(C)=O)cc1 [Compound 3b1],3.8 fold,–,–,–
CN(Cc1ccc(CN(C)S(C)(=O)=O)cc1)S(C)(=O)=O [Compound 3b2],2 fold,–,–,–
CN(CC1CCC(CN(C)S(C)(=O)=O)CC1)S(C)(=O)=O (stereo not shown) [Compound 3c2],not able to induce HEXIM1 expression,–,–,–
CC(=O)N(C)C1CCC(N(C)C(C)=O)CC1 (stereo not shown) [Compound 3d1],not able to induce HEXIM1 expression,–,–,–
CN(C1CCC(N(C)S(C)(=O)=O)CC1)S(C)(=O)=O (stereo not shown) [Compound 3d2],significant activity,–,did not reach the cutoff,precipitation
CN(CCCN(C)S(C)(=O)=O)S(C)(=O)=O [Compound 3f2],not able to induce HEXIM1 expression,–,did not reach the cutoff,precipitation
COc1ccc(C(=O)NCCCCCCNC(C)=O)cc1 [Compound 4a3],–,–,reached this cutoff,–
CC(=O)NCCCCCCNC(=O)c1ccc(-c2ccccc2)cc1 [Compound 4a4],not able to induce HEXIM1 expression,–,did not reach the cutoff,–
